From patent US6743892B1, “Molecules that home to a selected organ in vivo” (La Jolla Cancer Research Foundation, priority 1995, dated 2004)
Bridge positions count the residues as written; N and C are the ends. Ends that are not written are not given here.

Assays:
[1] = system: brain; test: 125I-peptide/RBC complex homing to brain and kidney, with or without unlabeled peptide; format: in vivo, mouse; conditions: 10 mM unlabeled peptide coadministered
Method: The synthetic cyclic CLSSRLDAC (SEQ ID NO: 3) peptide (1 mg) was labeled with iodine-125 using the Bolton and Hunter reagent (Amersham; Arlington Heights Ill.). Labeled peptide was purified by reverse phase HPLC on Sep-Pak™ cartridges (Waters, Millipore Corp.; Milford Pa.) and the ^125I-peptide (200 μg) was coupled to 1 ml glutaraldehyde-stabilized sheep RBC (Sigma Chemical Co.; St. Louis Mo.) according to the manufacturer's instructions.
After 2 min, each mouse was perfused through the heart with 50 ml DMEM and the brain and kidney were removed and assayed for radioactivity.
Approximately twice as much of the CLSSRLDAC/RBC complex (SEQ ID NO: 3) homed to brain than to kidney. […] Coadministration of unlabeled CVRLNSLAC (SEQ ID NO: 43) had no effect on selective homing of the complex to brain and no effect on the non-specific localization of the complex in the kidney.

[2] = system: brain; test: Brain homing activity (test not described); conditions: in vivo
[3] = system: brain; test: Peptide competition of phage homing to brain; format: in vivo, mice; conditions: 100 μg synthetic cyclic peptide injected with 1×10^8 TU phage
Method: In order to confirm the specificity of a peptide for directing homing to a selected organ, peptide competition experiments were performed. The cyclic peptide, CLSSRLDAC (SEQ ID NO: 3), which is one of the brain homing peptides (see Table 1) was synthesized (Immunodynamics; La Jolla Calif.) and purified by HPLC. The effect on the homing of phage expressing CLSSRLDAC (SEQ ID NO: 3), CENWWGDVC (SEQ ID NO: 2) or […] (SEQ ID NO: 16) to the brain was examined in order to determine whether co-administration of the synthetic peptide affected homing of the phage.
Phage expressing CLSSRLDAC (SEQ ID NO: 3), CENWWGDVC (SEQ ID NO: 2) or […] (SEQ ID NO: 16) were titrated to the same concentration and 1×10^8 TU was injected into mice alone, or with 100 μg purified synthetic cyclic CLSSRLDAC (SEQ ID NO: 3) peptide. The synthetic CLSSRLDAC (SEQ ID NO: 3) peptide inhibited the homing of phage expressing CLSSRLDAC (SEQ ID NO: 3) by about 60%.

With CVRLNSLAC [reference compound] the “effect of coadministration on brain homing of the CLSSRLDAC/RBC complex” value [1] was “no effect”, the “effect of coadministration on localization of the CLSSRLDAC/RBC complex in the kidney” value [1] was “no effect” and the brain homing activity [2] was “no brain homing activity”.
For CLSSRLDAC (disulfide 1-9 (inferred)), the “effect of coadministration on brain homing of the CLSSRLDAC/RBC complex” value [1] was “essentially completely inhibited”, the “effect of coadministration on localization of the CLSSRLDAC/RBC complex in the kidney” value [1] was “no effect” and the “effect on homing to brain of CENWWGDVC phage” value [3] was “did not affect”. For the same sequence, the “inhibition of homing to brain of phage expressing CLSSRLDAC” value [3] was “about 60%”.
